Experimental data: publication PMC4396990, “Targeting Vascular Endothelial Growth Factor Receptor 2 and Protein Kinase D1 Related Pathways by a Multiple Kinase Inhibitor in Angiogenesis and Inflammation Related Processes In Vitro” (PLoS ONE, 2015)

Key:
Assay type in all cases: biochemical
VEGFR3 = molecular target: T1, VEGFR3 (Homo sapiens, UniProt P35916); experiment: recombinant kinase assay (ProQinase) at single […] concentration
T1 construct: gene FLT4

PKD1 = molecular target: T2, PKD1 (Homo sapiens, UniProt Q15139); experiment: recombinant kinase assay (IMAP fluorescence polarization, TAMRA-peptide)
T2 construct: gene PRKD1
T2 sequence (Q15139 1-912): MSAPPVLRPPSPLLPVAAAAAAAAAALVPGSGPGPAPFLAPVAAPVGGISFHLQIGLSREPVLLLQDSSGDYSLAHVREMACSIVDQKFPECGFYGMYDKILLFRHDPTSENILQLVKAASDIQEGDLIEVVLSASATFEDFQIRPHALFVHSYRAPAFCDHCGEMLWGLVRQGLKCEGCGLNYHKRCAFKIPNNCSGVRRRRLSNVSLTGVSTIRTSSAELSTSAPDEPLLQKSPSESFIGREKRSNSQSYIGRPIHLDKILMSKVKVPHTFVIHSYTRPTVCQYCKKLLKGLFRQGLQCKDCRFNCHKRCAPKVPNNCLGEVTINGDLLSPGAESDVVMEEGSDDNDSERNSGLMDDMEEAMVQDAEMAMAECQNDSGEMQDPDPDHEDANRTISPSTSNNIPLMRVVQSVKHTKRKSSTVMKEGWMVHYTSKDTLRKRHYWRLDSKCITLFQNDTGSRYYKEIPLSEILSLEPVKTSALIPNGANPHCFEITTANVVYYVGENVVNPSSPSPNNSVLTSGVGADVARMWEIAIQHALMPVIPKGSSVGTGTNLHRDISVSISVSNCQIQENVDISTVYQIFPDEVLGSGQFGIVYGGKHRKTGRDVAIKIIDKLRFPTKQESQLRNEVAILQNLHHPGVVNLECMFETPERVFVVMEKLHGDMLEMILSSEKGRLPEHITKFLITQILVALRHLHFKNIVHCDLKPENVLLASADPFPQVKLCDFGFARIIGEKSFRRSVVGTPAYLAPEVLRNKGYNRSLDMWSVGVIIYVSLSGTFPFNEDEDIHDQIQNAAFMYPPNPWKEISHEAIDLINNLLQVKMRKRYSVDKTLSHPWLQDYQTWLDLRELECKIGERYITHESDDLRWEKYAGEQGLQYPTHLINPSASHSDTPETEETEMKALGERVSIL

PKD2 = molecular target: T3, PKD2 (Homo sapiens, UniProt Q9BZL6); experiment: kinase selectivity study (SignalChem) at single […] concentration
T3 construct: gene PRKD2
T3 sequence (Q9BZL6 1-878): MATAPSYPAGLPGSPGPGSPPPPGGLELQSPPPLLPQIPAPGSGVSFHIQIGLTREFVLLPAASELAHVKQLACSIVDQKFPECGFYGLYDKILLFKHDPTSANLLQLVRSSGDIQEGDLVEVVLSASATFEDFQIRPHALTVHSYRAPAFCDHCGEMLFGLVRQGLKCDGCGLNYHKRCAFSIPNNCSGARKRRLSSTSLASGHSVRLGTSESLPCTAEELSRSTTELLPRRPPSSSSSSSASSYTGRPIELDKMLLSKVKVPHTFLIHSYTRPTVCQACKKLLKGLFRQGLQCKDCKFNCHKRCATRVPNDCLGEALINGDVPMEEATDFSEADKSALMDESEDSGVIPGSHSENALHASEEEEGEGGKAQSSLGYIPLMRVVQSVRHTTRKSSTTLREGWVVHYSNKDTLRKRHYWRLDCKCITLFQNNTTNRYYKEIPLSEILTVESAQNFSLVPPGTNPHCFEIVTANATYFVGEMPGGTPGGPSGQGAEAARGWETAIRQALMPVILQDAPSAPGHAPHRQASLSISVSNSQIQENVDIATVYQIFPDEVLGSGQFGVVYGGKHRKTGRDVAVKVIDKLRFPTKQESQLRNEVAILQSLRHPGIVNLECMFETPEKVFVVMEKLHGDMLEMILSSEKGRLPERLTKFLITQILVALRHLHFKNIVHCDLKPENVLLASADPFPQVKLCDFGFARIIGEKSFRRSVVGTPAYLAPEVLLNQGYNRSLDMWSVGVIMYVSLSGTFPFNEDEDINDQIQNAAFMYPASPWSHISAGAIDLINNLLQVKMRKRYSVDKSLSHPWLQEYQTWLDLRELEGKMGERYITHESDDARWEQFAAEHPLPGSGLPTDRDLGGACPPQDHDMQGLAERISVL

VEGFR2 = molecular target: T4, VEGFR2 (Homo sapiens, UniProt P35968); experiment: recombinant kinase assay (Transcreener ADP detection)
T4 construct: gene KDR
T4 sequence (P35968 20-1356): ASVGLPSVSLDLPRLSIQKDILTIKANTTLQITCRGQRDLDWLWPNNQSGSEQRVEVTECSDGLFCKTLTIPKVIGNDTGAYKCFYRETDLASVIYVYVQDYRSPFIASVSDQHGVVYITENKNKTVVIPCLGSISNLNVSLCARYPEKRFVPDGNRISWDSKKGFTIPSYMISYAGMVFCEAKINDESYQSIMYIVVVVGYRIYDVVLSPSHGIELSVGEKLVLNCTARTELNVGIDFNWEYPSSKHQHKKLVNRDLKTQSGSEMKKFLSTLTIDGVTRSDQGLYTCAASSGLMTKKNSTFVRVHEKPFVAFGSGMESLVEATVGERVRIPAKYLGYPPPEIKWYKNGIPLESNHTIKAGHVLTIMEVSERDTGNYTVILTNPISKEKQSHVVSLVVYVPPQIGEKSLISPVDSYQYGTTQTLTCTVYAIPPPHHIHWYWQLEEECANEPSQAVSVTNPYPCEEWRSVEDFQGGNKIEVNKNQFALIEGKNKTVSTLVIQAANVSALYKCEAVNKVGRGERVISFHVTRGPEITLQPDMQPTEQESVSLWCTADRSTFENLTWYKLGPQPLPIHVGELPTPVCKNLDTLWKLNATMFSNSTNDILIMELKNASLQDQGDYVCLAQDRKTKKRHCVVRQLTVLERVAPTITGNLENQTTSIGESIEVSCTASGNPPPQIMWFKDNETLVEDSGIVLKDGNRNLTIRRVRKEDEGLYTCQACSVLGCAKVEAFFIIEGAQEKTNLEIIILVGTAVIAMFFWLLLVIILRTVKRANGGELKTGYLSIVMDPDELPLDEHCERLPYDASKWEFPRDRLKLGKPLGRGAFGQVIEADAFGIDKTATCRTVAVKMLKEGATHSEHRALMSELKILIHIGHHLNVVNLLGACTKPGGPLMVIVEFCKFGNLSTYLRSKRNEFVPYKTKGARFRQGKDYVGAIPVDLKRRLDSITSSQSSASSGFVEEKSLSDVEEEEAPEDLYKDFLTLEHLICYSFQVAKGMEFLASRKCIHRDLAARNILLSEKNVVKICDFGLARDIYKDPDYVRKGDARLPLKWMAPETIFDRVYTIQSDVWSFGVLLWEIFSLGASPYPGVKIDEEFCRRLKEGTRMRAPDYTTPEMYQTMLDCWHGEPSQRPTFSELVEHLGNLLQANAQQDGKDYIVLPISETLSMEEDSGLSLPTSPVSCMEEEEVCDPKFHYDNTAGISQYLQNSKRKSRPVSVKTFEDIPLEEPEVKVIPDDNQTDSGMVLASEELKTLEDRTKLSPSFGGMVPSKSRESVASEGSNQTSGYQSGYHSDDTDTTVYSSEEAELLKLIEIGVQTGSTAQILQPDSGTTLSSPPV

VEGFR1 = molecular target: T5, VEGFR1 (Homo sapiens, UniProt P17948); experiment: recombinant kinase assay (ProQinase) at single […] concentration
T5 construct: gene FLT1
T5 sequence (P17948 27-1338): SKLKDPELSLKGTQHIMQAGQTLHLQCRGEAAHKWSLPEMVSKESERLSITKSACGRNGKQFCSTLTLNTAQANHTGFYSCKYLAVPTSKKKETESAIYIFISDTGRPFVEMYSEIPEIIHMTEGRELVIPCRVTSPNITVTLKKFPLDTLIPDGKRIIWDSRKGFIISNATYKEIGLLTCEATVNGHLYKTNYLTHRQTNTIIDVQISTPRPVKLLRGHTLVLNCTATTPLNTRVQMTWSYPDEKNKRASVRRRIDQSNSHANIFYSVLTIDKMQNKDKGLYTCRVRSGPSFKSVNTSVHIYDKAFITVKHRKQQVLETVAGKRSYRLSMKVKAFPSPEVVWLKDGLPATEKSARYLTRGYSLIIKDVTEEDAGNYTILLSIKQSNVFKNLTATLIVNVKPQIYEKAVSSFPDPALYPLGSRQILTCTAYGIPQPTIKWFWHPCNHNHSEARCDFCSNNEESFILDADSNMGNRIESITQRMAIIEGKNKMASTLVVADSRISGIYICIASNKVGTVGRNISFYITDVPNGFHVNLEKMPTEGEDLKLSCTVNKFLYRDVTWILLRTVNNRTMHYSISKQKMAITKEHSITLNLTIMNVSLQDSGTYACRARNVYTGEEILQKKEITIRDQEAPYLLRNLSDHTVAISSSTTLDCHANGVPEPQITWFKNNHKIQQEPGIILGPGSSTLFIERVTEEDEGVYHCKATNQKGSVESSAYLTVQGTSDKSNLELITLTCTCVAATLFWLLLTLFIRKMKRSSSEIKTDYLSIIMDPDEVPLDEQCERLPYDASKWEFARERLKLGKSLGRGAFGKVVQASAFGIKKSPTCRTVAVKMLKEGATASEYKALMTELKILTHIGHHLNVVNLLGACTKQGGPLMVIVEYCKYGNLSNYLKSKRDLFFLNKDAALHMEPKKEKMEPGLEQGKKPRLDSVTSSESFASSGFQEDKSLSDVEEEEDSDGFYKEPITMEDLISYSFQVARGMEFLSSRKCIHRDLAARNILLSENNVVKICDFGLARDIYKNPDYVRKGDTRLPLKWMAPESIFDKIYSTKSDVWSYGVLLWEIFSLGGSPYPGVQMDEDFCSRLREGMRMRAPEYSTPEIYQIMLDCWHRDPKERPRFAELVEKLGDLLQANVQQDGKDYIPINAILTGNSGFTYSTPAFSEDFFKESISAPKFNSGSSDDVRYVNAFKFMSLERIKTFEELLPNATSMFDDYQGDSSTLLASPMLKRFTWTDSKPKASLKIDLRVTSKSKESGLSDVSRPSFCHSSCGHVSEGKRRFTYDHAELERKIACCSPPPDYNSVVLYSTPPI

T1 sequence (P35916 25-1363): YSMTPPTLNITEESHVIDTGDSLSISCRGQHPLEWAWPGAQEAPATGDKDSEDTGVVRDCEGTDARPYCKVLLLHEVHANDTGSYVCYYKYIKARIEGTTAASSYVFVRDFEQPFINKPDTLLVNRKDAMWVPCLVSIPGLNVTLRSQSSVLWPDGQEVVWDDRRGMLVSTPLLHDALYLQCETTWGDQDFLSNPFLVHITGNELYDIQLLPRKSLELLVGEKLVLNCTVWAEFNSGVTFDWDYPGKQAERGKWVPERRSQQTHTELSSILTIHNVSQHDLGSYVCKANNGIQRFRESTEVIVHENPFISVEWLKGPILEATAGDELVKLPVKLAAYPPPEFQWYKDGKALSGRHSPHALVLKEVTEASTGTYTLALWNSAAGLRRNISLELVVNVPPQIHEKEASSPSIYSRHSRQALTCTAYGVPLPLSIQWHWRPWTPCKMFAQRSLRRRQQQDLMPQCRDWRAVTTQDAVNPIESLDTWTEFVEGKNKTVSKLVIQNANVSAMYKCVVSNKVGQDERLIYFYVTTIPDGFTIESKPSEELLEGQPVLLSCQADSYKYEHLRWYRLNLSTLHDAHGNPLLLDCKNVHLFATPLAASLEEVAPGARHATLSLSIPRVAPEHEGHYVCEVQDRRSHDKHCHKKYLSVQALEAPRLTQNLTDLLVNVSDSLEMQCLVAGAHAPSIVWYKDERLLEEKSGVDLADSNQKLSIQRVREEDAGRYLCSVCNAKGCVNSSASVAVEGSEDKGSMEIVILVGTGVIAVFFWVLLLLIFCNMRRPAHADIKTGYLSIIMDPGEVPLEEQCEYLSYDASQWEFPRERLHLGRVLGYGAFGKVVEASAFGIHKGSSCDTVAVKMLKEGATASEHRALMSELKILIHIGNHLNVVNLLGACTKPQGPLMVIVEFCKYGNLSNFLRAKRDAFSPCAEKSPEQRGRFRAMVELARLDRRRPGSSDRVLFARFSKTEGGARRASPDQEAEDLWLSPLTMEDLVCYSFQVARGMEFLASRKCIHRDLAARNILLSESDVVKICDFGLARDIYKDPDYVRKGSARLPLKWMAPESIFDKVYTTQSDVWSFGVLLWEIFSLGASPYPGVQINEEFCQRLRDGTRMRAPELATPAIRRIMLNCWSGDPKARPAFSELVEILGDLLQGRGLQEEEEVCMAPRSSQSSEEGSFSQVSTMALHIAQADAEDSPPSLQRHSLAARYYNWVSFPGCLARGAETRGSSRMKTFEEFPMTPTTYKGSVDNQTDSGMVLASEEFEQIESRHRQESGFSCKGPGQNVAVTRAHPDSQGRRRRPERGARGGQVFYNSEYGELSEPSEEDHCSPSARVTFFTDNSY

For `CCn1c(=O)ccc2cnc(Nc3ccc(N4CCN(C)CC4)cc3)nc21` [VCC251801], the “recombinant kinase assay (ProQinase) at single 1 μM concentration” value (VEGFR3) was “In this selectivity study, VCC251801 blocked both VEGFR1 and VEGFR3 activation”, the IC50 (PKD1) was 28 nM and the “kinase selectivity study (SignalChem) at single 5 μM concentration” value (PKD2) was “it showed moderate inhibitory effect against the other PKD isoform, PKD2”. The IC50 (VEGFR2) was 69 nM and the “recombinant kinase assay (ProQinase) at single 1 μM concentration” value (VEGFR1) was “In this selectivity study, VCC251801 blocked both VEGFR1 and VEGFR3 activation”.
